{
  "source": "ChEMBL document CHEMBL1126394",
  "about": "“Synthesis of 1-(2-Indolyl)pyridinium salts: a prodrug approach to acetylcholinesterase inhibition” (Bioorg Med Chem Lett, 1992)",
  "key": {"Acetylcholinesterase": {"target": "Acetylcholinesterase (Electrophorus electricus, UniProt O42275)", "sequence (O42275 whole entry)": "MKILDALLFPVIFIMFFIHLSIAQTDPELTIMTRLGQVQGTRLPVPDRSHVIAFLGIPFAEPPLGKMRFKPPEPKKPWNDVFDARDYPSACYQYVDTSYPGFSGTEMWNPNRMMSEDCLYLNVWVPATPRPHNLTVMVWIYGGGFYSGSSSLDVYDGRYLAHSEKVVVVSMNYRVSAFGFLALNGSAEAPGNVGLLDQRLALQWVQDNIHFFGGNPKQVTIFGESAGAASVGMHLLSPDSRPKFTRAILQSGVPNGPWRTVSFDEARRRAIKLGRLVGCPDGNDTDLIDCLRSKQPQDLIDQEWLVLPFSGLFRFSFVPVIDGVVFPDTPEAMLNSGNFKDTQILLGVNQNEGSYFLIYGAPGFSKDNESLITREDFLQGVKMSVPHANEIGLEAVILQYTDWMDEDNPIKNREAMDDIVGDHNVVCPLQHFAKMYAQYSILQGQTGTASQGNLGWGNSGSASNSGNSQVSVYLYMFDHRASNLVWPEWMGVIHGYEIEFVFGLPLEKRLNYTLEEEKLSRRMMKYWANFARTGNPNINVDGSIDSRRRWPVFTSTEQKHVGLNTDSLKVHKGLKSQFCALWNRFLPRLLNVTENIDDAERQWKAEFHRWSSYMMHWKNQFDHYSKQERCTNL", "test": "Inhibitory activity against acetylcholinesterase as a prodrug was demonstarted"}, "[1]": {"test": "pKa value was determined", "format": "physicochemical"}},
  "data": [
    {"smiles": "CC1c2cc(OC(=O)N(C)C)ccc2NC1[n+]1cccc(C(N)=O)c1", "note": "(configuration not stated)", "values": [
      {"measurement": "IC50", "setting": "Acetylcholinesterase", "value": 50, "unit": "µM"}
    ]},
    {"smiles": "CNC(=O)Oc1ccc2c(c1)[C@]1(C)CCN(C)[C@@H]1N2C", "note": "[PHYSOSTIGMINE]", "values": [
      {"measurement": "pKa", "setting": "[1]", "value": 7.9}
    ]}
  ]
}
